One compound from US8394398B2 (Abbott Laboratories, priority 1997, dated 2013) can be followed below.

Holding throughout (format): cell-based
Assay [1] relates to human coronary artery smooth muscle cells (hCaSMC). Nature of the assay: 3H-thymidine uptake proliferation assay, hCaSMC. The note with it: Homo sapiens, 3 h; read-out: hCaSMC IC50 Mean ± SEM. The procedure:
Experiments were performed to investigate interactions between zotarolimus and the corticosteroid dexamethasone. The effect of dexamethasone on the antiproliferative activity of zotarolimus in human coronary artery smooth muscle ([…]) and endothelial […] determined using an in vitro proliferation assay. The proliferation and migration of vascular smooth muscle cells into the vascular neointima is a characteristic pathologic response seen in restenotic lesions (A. Lafont and P. Libby, The smooth muscle cell: sinner or saint in restenosis and the acute coronary syndromes? […] As a result, in vitro assays which specifically measure the antiproliferative activity of candidate anti-restenotic compounds on human coronary artery smooth muscle and endothelial cells should predict potential anti-restenotic activity in vivo. The tritium incorporation assay is an accurate and sensitive method used in the art to determine cell number and proliferation. Compounds or combinations of compounds which attenuate growth factor-mediated human coronary artery smooth muscle cell […]) proliferation, as measured by the tritium incorporation assay in vitro, are candidate anti-restenotic agents. […] Cell proliferation was monitored by following incorporation of ^3H-thymidine into newly synthesized DNA of cells stimulated by serum and growth factors. Exponentially growing […] were seeded into 96-well flat bottom tissue culture plates at 5,000 cells/well (10,000 cells/well for […]). The cells were allowed to attach overnight. The growth medium was removed the following day and cells were washed twice with unsupplemented (basal) medium to remove traces of serum and growth factors. Basal medium (200 μl) was added to each well and the cells incubated in medium lacking growth factors and serum to starve and synchronize them in the G0 state. After starvation (48 hours for […] and 39 hours for […]) in medium lacking serum and growth factors, the cells were replenished with 200 μl supplemented medium in the absence or presence of drugs at the desired concentrations. […] After a 72-hour incubation period, 25 μl (1 μCi/well) of ^3H-thymidine (Amersham Biosciences) were added to each well. The cells were incubated at 37° C. for 16-18 hours to allow incorporation of ^3H-thymidine into newly synthesized DNA and the cells harvested onto 96-well plates containing bonded glass fiber filters using a cell harvester (Harvester 9600, TOMTEC). […] Controls included medium only, starved cells and cells in complete medium. Drug activity was established by determining the inhibition of ^3H-thymidine incorporation into newly synthesized DNA relative to cells grown in complete medium. […] The final IC50s are means of the 3-4 experiments. In these experiments, the x-axis represents the concentration of the drug being varied. For most of these curves that is zotarolimus alone and in combination with a fixed concentration of dexamethasone. Each graph contains a dexamethasone alone curve and a zotarolimus alone curve. The set of curves in each graph is generated by adding dexamethasone at a fixed concentration (1, 5, 10 or 25 nM) to various concentrations of zotarolimus (0, 0.04, 0.08, 0.8, 4, 8, 40 nM). Each curve represents the dose-response of zotarolimus (whose concentration is given on the x-axis) in the presence of the fixed concentration of dexamethasone given in the legend). […] The concentration eliciting a specific antiproliferative effect was determined using a 4-parameter equation (Equation 1). […]

In assay [2] the test system is human coronary artery endothelial cells (hCaEC). Nature of the assay: 3H-thymidine uptake proliferation assay, hCaEC. The note with it: Homo sapiens, Endothelial cell, 3 h; read-out: hCaEC IC50 Mean ± SEM.
The test system is the same in assay [3]. The assay is described as follows: cytokine production by TNFα-treated human coronary artery endothelial cells (ELISA). The note with it: TNFα (5 ng/ml), 24 hours. On the procedure: (§1) Experiments were performed to determine the effects of zotarolimus, sirolimus and dexamethasone on the production of TNFα, IL-6 and MCP-1 by activated human monocytes In addition to monocytes and macrophages two other key cell types are involved in the etiology of restenosis, arterial smooth muscle and endothelial cells. These cells are activated and produce cytokines in response to TNFα. […] The activation of cytokine production by human coronary artery smooth muscle and endothelial cells following TNFα treatment was determined by measuring interleukine-8 (IL-8), MCP-1 and IL-6 production. As shown by the results of the experiments described below, the ability of these compounds to inhibit the production of cytokines supports their use in combination as anti-restenotic agents since these cytokines play a role in the development of restenosis. […] After 24 hours, the supernatants were carefully collected and TNFα, IL-6 and MCP-1 levels determined by ELISA. Primary cultures of human coronary artery endothelial and smooth muscle cells were obtained from Cambrex and maintained as described by the vendor. […] After 24 hours the supernatants were removed and replaced with media containing TNFα (5 ng/ml) in the presence and absence of various concentrations of zotarolimus, dexamethasone or sirolimus. The cells were incubated for 24 hours and the supernatants carefully removed and frozen until measurement. Cytokine levels were measured in the supernatants by sandwich ELISA.
In general terms: ELISA stands for enzyme-linked immunosorbent assay.

Assay [4] deals with human coronary artery smooth muscle cells (hCaSMC). Nature of the assay: cytokine production by TNFα-treated human coronary artery smooth muscle cells (ELISA). The note with it: hCaSMC, TNFα (5 ng/ml), 24 hours. The procedure: as §1

For the compound `CO[C@H]1C[C@@H]2CC[C@@H](C)[C@@](O)(O2)C(=O)C(=O)N2CCCC[C@H]2C(=O)O[C@H]([C@H](C)C[C@@H]2CC[C@H](n3cnnn3)[C@H](OC)C2)CC(=O)[C@H](C)/C=C(\C)[C@@H](O)[C@@H](OC)C(=O)[C@H](C)C[C@H](C)/C=C/C=C/C=C/1C` [zotarolimus], the IC50 (as a rule, the concentration that gives 50% inhibition) in assay [1] worked out at 6.2 ± 1.2 nM. The 50% inhibitory concentration (IC50) in assay [2] came out at 3.2 ± 0.5 nM. Further, in assay [3], the “Maximal Inhibitory Activity, IL-6” value was “− (− indicates maximal inhibitory activity less than 50% of control)”; the “Maximal Inhibitory Activity, Il-8” value was “− (− indicates maximal inhibitory activity less than 50% of control)”; the “Maximal Inhibitory Activity, MCP-1” value was “− (− indicates maximal inhibitory activity less than 50% of control)”. In assay [4], the “Maximal Inhibitory Activity, IL-6” value is given as “− (− indicates maximal inhibitory activity less than 50% of control)”; the “Maximal Inhibitory Activity, Il-8” value was “− (− indicates maximal inhibitory activity less than 50% of control)”; the “Maximal Inhibitory Activity, MCP-1” value is given as “− (− indicates maximal inhibitory activity less than 50% of control)”.
